Results taken from ChEMBL document CHEMBL5223162, “Discovery of Pyrazolopyridine Derivatives as HPK1 Inhibitors” (ACS Med Chem Lett, 2023).

What was measured:
Cytochrome P450 2B6 = molecular target: T1, Cytochrome P450 2B6 (Homo sapiens, UniProt P20813); experiment: Inhibition of CYP2B6 in human liver microsomes using bupropion as substrate by LC-MS analysis; type: ADME, Microsome
T1 sequence (P20813 whole entry): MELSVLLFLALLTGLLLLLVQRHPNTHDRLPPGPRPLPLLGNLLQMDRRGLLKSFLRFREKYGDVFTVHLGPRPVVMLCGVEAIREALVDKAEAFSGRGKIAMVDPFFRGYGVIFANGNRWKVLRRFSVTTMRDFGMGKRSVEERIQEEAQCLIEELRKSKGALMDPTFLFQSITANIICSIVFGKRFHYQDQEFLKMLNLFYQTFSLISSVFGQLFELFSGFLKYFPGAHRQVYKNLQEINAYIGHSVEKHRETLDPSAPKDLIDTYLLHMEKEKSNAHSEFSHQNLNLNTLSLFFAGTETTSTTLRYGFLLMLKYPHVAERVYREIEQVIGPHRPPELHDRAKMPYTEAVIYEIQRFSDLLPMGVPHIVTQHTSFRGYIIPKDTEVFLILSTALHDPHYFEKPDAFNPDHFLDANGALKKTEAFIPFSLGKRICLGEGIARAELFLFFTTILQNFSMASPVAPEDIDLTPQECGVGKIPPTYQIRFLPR

Cytochrome P450 2C19 = Cytochrome P450 2C19 (Homo sapiens, UniProt P33261); experiment: Inhibition of CYP2C19 in human liver microsomes using S mephenytoin as substrate by LC-MS analysis; type: ADME, Microsome
Chain of Cytochrome P450 2C19 (P33261 whole entry): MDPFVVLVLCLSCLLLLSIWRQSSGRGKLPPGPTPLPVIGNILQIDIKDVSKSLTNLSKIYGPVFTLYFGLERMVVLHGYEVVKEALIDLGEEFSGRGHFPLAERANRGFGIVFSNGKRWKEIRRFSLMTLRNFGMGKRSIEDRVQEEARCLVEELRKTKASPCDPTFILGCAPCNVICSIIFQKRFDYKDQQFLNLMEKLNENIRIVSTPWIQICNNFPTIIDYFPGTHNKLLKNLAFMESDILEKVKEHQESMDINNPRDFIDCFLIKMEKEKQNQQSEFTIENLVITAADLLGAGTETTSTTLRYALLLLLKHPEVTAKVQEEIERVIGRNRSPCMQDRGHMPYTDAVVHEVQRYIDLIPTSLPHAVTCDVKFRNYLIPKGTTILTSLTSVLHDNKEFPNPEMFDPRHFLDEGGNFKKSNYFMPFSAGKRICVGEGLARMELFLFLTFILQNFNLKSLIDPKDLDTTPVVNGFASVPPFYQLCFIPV

hERG (KCNH2) = hERG (KCNH2) (Homo sapiens, UniProt Q12809); experiment: Inhibition of human ERG at 5 uM by patch-clamp assay; type: toxicity
Chain of hERG (KCNH2) (Q12809 whole entry): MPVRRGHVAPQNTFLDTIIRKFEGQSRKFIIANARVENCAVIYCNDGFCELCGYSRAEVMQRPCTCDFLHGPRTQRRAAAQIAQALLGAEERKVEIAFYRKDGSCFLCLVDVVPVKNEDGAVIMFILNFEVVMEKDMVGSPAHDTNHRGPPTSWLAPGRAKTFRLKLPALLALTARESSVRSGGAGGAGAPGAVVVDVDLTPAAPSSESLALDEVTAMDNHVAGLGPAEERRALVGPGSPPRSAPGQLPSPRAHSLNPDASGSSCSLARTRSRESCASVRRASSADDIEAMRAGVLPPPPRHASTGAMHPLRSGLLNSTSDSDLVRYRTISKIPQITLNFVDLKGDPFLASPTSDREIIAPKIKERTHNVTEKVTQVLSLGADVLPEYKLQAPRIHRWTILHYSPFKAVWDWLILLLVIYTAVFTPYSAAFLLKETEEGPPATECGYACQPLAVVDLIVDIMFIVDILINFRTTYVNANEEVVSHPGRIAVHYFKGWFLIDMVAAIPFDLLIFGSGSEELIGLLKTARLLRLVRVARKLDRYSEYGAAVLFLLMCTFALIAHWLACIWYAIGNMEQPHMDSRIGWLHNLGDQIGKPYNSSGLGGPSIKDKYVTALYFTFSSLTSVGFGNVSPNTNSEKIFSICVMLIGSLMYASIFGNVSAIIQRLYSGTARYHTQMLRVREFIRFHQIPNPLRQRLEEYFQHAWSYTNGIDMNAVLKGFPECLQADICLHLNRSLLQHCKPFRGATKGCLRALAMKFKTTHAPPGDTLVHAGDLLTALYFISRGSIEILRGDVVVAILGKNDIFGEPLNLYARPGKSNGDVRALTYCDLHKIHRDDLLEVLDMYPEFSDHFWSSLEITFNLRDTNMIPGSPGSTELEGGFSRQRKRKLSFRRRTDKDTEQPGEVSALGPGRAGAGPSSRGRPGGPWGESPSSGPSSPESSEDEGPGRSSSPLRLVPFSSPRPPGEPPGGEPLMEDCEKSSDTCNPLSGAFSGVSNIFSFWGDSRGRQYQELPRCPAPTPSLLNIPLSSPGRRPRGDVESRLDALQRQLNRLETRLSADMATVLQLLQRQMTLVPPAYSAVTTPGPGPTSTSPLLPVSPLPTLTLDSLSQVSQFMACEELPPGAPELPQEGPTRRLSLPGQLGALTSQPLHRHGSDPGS

Cytochrome P450 2C9 = Cytochrome P450 2C9 (Homo sapiens, UniProt P11712); experiment: Inhibition of CYP2C9 in human liver microsomes using diclofenac as substrate by LC-MS analysis; type: ADME, Microsome
Chain of Cytochrome P450 2C9 (P11712 whole entry): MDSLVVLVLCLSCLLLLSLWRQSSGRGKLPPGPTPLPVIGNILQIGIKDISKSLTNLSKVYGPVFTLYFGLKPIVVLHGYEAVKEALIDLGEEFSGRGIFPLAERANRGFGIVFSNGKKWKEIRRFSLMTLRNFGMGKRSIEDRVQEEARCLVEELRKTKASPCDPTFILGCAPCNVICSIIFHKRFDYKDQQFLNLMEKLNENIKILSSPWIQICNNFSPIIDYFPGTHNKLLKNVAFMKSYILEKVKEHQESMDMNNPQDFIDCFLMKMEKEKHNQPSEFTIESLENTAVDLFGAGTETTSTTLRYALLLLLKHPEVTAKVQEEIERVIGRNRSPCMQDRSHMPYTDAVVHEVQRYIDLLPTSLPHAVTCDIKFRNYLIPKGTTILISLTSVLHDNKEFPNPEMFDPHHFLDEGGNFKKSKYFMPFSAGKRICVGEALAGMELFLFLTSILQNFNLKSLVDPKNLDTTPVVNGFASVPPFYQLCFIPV

[1] = AUC in Sprague-Dawley rat at 3 mg/kg, po and measured upto 24 hrs by LC-MS/MS analysis; type: ADME, organism-based; parameters: dose 3 mg/kg, time < 24 hrs, route po; settings: in vivo
Cytochrome P450 2D6 = Cytochrome P450 2D6 (Homo sapiens, UniProt P10635); experiment: Inhibition of CYP2D6 in human liver microsomes using bufuralol as substrate by LC-MS analysis; type: ADME, Microsome
Chain of Cytochrome P450 2D6 (P10635 whole entry): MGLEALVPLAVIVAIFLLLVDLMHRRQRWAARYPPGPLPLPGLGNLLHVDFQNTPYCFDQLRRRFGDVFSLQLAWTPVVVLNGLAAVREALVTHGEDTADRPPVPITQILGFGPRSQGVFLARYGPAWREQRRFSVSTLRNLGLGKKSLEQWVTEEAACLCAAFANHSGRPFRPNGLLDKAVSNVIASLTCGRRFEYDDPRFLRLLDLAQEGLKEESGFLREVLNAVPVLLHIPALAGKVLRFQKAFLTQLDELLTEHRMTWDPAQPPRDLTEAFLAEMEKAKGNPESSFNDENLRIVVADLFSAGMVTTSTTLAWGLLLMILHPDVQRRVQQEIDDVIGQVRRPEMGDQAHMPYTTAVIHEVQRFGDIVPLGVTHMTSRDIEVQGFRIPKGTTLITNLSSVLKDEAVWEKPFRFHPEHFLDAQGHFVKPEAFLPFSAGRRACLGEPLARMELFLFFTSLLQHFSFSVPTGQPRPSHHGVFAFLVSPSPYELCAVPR

[2] = Volume of distribution at steady state in cynomolgus monkey at 1 mg/kg, iv and measured upto 24 hrs by LC-MS/MS analysis; type: ADME, organism-based, Macaca fascicularis; settings: in vivo
Cytochrome P450 2C8 = molecular target: T2, Cytochrome P450 2C8 (Homo sapiens, UniProt P10632); experiment: Inhibition of CYP2C8 in human liver microsomes using amodiaquine as substrate by LC-MS analysis; type: ADME, Microsome
T2 sequence (P10632 whole entry): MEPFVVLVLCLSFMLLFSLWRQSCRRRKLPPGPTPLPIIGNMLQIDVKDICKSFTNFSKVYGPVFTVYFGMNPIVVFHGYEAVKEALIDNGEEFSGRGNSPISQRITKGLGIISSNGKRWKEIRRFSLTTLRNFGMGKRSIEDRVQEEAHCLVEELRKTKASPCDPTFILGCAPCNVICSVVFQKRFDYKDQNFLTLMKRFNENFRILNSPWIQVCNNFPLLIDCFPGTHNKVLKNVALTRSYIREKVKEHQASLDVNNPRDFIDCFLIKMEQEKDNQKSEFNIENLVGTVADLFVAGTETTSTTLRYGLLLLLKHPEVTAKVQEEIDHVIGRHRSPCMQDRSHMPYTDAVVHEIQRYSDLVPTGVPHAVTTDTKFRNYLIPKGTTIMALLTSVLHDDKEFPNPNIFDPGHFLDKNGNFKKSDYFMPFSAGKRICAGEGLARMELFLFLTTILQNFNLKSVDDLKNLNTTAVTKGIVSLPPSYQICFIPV

Cytochrome P450 3A4 = Cytochrome P450 3A4 (Homo sapiens, UniProt P08684); experiment: Inhibition of CYP3A4 in human liver microsomes using testosterone as substrate by LC-MS analysis; type: ADME, Microsome
Chain of Cytochrome P450 3A4 (P08684 whole entry): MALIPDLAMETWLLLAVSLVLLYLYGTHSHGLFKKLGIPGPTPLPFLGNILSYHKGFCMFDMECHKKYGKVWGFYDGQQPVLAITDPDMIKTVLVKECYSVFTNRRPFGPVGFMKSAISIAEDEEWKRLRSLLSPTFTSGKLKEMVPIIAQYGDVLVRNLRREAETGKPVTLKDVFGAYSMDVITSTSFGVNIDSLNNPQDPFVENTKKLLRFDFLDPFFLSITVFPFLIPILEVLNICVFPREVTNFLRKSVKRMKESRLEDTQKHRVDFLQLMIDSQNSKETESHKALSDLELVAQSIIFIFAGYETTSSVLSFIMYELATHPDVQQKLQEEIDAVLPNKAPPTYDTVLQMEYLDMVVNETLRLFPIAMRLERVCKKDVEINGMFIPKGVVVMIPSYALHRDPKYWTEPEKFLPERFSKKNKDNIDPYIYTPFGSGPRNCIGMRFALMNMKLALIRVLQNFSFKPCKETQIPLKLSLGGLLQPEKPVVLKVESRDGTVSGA

[3] = Oral bioavailability in cynomolgus monkey at 3 mg/kg and measured upto 24 hrs by LC-MS/MS analysis; type: ADME, organism-based, Macaca fascicularis; settings: in vivo
[4] = Clearance in Sprague-Dawley rat at 1.5 mg/kg, iv and measured upto 24 hrs by LC-MS/MS analysis; type: ADME, organism-based; settings: in vivo
[5] = Intrinsic clearance in human liver microsomes at 1 uM and measured upto 30 mins in presence of NADPH by LC-MS analysis; type: ADME, Microsome; settings: read-out: CLH (converted)
[6] = molecular target: T3, Mitogen-activated protein kinase kinase kinase kinase 1 (Homo sapiens, UniProt Q92918); experiment: Binding affinity to recombinant human HPK1 (1 to 346 residues) expressed sf9 cells incubated for 1 hr by LanthaScreen assay
T3 sequence (Q92918 whole entry, the tested form may be a part): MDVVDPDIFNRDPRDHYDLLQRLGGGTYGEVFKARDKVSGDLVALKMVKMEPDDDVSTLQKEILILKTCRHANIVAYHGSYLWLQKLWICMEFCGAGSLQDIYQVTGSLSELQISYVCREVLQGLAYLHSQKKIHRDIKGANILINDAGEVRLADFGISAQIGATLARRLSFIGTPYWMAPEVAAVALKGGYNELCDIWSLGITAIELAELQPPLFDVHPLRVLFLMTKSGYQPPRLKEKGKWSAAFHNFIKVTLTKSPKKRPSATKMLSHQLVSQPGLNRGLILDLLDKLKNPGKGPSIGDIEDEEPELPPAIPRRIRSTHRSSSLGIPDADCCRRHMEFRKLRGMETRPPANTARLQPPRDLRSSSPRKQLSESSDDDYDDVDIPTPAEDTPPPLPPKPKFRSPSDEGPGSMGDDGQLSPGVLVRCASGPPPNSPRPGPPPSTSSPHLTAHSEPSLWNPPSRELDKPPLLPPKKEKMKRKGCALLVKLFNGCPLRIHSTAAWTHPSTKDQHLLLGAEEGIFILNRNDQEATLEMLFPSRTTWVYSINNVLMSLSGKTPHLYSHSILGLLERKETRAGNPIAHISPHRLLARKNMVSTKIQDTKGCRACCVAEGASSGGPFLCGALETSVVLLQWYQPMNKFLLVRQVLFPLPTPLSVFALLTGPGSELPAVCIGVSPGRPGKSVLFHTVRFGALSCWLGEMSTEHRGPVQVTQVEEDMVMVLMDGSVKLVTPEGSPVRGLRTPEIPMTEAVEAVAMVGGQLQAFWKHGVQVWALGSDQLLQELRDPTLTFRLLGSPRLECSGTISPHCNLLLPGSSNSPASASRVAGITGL

[7] = AUC in cynomolgus monkey at 3 mg/kg, po and measured upto 24 hrs by LC-MS/MS analysis; type: ADME, organism-based, Macaca fascicularis; parameters: dose 3 mg/kg, time < 24 hrs, route po; settings: in vivo
[8] = molecular target: T3, Mitogen-activated protein kinase kinase kinase kinase 1; experiment: Inhibition of human HPK1 in human whole blood assessed as reduction in SLP76 phosphorylation incubated for 1 hr by HTRF assay; type: tissue-based
[9] = Half life in cynomolgus monkey at 1 mg/kg, iv and measured upto 24 hrs by LC-MS/MS analysis; type: ADME, organism-based, Macaca fascicularis; settings: in vivo
[10] = Permeability across apical to basolateral side in human Caco2 cells at 50 uM and measured after 120 mins by LC-MS analysis; type: ADME, cell-based; settings: Caco-2, read-out: permeability
[11] = Fraction unbound in human plasma by LC-MS/MS analysis; type: ADME, cell-free
Cytochrome P450 1A2 = molecular target: T4, Cytochrome P450 1A2 (Homo sapiens, UniProt P05177); experiment: Inhibition of CYP1A2 in human liver microsomes using 7- ethoxyresorufin as substrate by LC-MS analysis; type: ADME, Microsome
T4 sequence (P05177 whole entry): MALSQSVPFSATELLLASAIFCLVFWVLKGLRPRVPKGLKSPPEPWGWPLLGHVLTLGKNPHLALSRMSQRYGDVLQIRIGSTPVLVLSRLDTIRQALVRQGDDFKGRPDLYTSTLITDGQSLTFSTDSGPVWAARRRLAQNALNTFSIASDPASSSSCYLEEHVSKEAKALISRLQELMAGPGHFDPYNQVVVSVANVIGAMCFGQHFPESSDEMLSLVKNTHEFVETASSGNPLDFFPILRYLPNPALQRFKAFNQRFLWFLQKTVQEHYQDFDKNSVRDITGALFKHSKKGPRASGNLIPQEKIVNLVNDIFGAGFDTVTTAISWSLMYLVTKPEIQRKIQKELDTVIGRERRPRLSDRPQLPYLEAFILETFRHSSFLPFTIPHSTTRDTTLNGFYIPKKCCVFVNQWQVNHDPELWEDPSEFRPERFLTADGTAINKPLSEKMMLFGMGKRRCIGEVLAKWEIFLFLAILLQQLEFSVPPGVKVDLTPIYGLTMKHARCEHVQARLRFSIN

[12] = Clearance in cynomolgus monkey at 1 mg/kg, iv and measured upto 24 hrs by LC-MS/MS analysis; type: ADME, organism-based, Macaca fascicularis; settings: in vivo
[13] = molecular target: T3, Mitogen-activated protein kinase kinase kinase kinase 1; experiment: Inhibition of human HPK1 in human Jurkat cells assessed as reduction in SLP76 phosphorylation incubated for 1 hr by HTRF assay; type: cell-based

Cc1cc(CN2CCC2)cc(F)c1-c1cc2c(-c3cnn(C)c3)n[nH]c2cn1
IC50 (Cytochrome P450 2B6): > 15 µM
IC50 (Cytochrome P450 2C19): > 15 µM
inhibition at 5 µM (hERG (KCNH2)): 5%
IC50 (Cytochrome P450 2C9): > 15 µM
AUC at 24 h [1]: 1.1 µM·h
IC50 (Cytochrome P450 2D6): > 15 µM
Vdss [2]: 4 L/kg
IC50 (Cytochrome P450 2C8): > 15 µM
IC50 (Cytochrome P450 3A4): > 15 µM
bioavailability [3]: 96%
clearance [4]: 102 mL/min/kg
CLint scaled at 1 µM [5]: 8.33 mL/min/kg
Ki [6]: 0.0041 µM
AUC at 24 h [7]: 9.77 µM·h
IC50 [8]: 0.302 µM
half-life [9]: 6 h
Papp A→B at 2 h, 50 µM [10]: 3.1 ×10⁻⁶ cm/s
fraction unbound [11]: 0.43
IC50 (Cytochrome P450 1A2): > 15 µM
clearance [12]: 15.8 mL/min/kg
IC50 [13]: 0.146 µM
